Results taken from US11786570B2, “Dermatological product” (SYMRISE AG, priority 2018, dated 2023).
“Also recorded” adds a separate entry of the source. Marks after values point to notes of the source that are not given here.

Assays:
human sebaceous glands [1] = assay: Total lipid (sebum) content of micro-dissected ex vivo human sebaceous glands in organ culture, lipids normalized on proteins; type: cell-based; settings: for Reduction of lipids at day 6 versus untreated; Total lipid reduction: Example 4; for Reduction of lipids at day 6 versus untreated; Lipid reduction: Example 8; for Effect on total lipid / sebum content of sebaceous glands, in words: day 6
Protocol: Organ culture of human sebaceous glands micro-dissected from human skin explants was performed to evaluate the modulatory activity of Tetraselmis suecica extract prepared according to the description given in Example 1 on the sebum level. The extract is employed in the dried form.
(§1) After removal of the epidermis of the full thickness skin sample, the sebaceous glands were carefully removed using micro-scissors and scalpel. The micro-dissected sebaceous glands were then pooled in groups of 8 and cultured up to day 6 in a 24 well plate immersed in 500 μl of modified Williams'E medium. After 24 hours of acclimation the culture medium was changed and substituted with the medium containing the extract to be tested. The medium was renewed at day 3 and 5 of culture. At day 6 the glands were collected and used for the quantification of lipids and proteins.
To do so, each sebaceous glands group was homogenized in 100 μl of isopropyl alcohol to extract lipids and let the proteins undissolved. After centrifugation the supernatant containing the extracted sebum was collected and analyzed. The remaining pellet was dried using a vacuum dry evaporator and then minced in presence of 50 μl of protein lysis buffer. After an appropriate incubation time, this extractive mixture was centrifuged, and the supernatant was collected and analyzed. The lipids dissolved in isopropyl alcohol and the proteins dissolved in the lysis buffer were quantified by infrared spectroscopy using a Direct Detect IR Spectrometer (Millipore). The total lipid amount was obtained by normalizing the quantified lipids upon the quantified proteins (i.e. mg of lipids/mg of proteins). The amounts of normalized lipids, i.e. the sebum produced by each group of sebaceous glands, obtained from the treated groups was compared to that of the untreated control group and the modulatory activity was calculated in percentage. As positive control, a 5 μM Capsaicin treatment was included in the experimental design. Capsaicin is an active component of chili peppers suitable to inhibit sebogenesis [T6th et al., J. Invest. Derm. (2009), 129: 329-339]. For statistical analysis, differences among groups were evaluated by one-way anova with permutation test followed by Dunnett's permutation test.
To evaluate donor responsiveness and interindividual variability the extract was tested on sebaceous glands obtained from skin samples of three different donors.
The Organ culture of human sebaceous glands micro-dissected from human skin explants was performed to evaluate the modulatory activity of mannitol on the sebum level.
as §1, with “sample” for “extract”
To do so, each sebaceous glands group was homogenized in 100 μl of isopropyl alcohol to extract lipids and let the proteins undissolved. After centrifugation the supernatant containing the extracted sebum was collected and analyzed. The remaining pellet was dried using a vacuum dry evaporator and then minced in presence of 50 μl of protein lysis buffer. After an appropriate incubation time, this extractive mixture was centrifuged, and the supernatant was collected and analyzed. The lipids dissolved in isopropyl alcohol and the proteins dissolved in the lysis buffer were quantified by infrared spectroscopy using a Direct Detect IR Spectrometer (Millipore). The total lipid amount was obtained by normalizing the quantified lipids upon the quantified proteins (i.e. mg of lipids/mg of proteins). […]

human sebaceous glands [2] = assay: Resazurin viability test of micro-dissected human sebaceous glands, day 6 versus day 1; type: cell-based
Protocol: To better understand the response to the extract, a viability test was performed in parallel at day 1 and day 6 of organ culture. Resazurin was added to the wells (1:11) and let incubate for 2 hours. At the end of the incubation an aliquot of the medium was read with a fluorometer (excitation: 560 nm, emission: 590 nm). The medium was then replaced with normal medium for 2 hours in order to eliminate residual resazurin. After this the medium was replaced again with medium containing the test samples. The viability in each well was measured as the difference in percentage between day 6 and day 1.

CLDN7 [Claudin 7] = assay: Gene expression by RT-qPCR in nHEK keratinocytes; type: cell-based, human
Protocol: Neonatale humane epidermal keratinocytes (nHEK) were cultivated in EpiLife medium (Gibco) including HKGS-Kit (Gibco) at 5% CO2 at 37° C. according to the supplier instructions. […] Genomic target expression levels in extract treated cells were measured by RT-qPCR comparing to medium treatment. RNA isolation took place using RNeasy® Mini Kit, Qiagen. Total RNA concentrations were measured using μCuvetteG 1.0 and BioPhotometer, Eppendorf by measuring the absorption at 260 nm. Purity control values, like […]/280 and E 260/230 were calculated simultaneously. Reverse transcription was done using high capacity RNA-to-cDNA Kit, Applied Biosystems, according to the supplier instructions. Samples were treated in the PCR Thermocycler, Biometra. For the fast real-time PCR, cDNA was diluted with RNase-free water and TaqManTM Fast Universal PCR Master Mix, Applied biosystems. Quantitaive Real-Time PCR was done using StepOne Plus Fast Real Time PCR Instrument, Applied biosystems. Analysis was done with StepOne-Software and 2-ΔCT Method (normalized to endogenous control HTRP1 expression).

OCLN [Occludin] = assay: Gene expression by RT-qPCR in nHEK keratinocytes; type: cell-based, human; settings: 0.002%
Protocol: (§2) Neonatale humane epidermal keratinocytes (nHEK) were cultivated in EpiLife medium (Gibco) including HKGS-Kit (Gibco) at 5% CO2 at 37° C. according to the supplier instructions.
(§3) […] Genomic target expression levels in extract treated cells were measured by RT-qPCR comparing to medium treatment.
(§4) RNA isolation took place using RNeasy® Mini Kit, Qiagen. Total RNA concentrations were measured using μCuvetteG 1.0 and BioPhotometer, Eppendorf by measuring the absorption at 260 nm. Purity control values, like E260/280 and E 260/230 were calculated simultaneously. Reverse transcription was done using high capacity RNA-to-cDNA Kit, Applied Biosystems, according to the supplier instructions. Samples were treated in the PCR Thermocycler, Biometra.
(§5) For the fast real-time PCR, cDNA was diluted with RNase-free water and TaqMan™ Fast Universal PCR Master Mix, Applied biosystems. Quantitaive Real-Time PCR was done using StepOne Plus Fast Real Time PCR Instrument, Applied biosystems. Analysis was done with StepOne-Software and 2-ΔCT Method (normalized to endogenous control HTRP1 expression).
(§6) For upregulations RQ values ≥2.0 and for downregulations RQ values <0.5 are considered to be relevant.

CLDN1 [Claudin 1] = assay: Gene expression by RT-qPCR in nHEK keratinocytes; type: cell-based, human; settings: 0.002%
Protocol: as §2, §3, §4, §5, §6

CGN [Cingulin] = assay: Gene expression by RT-qPCR in nHEK keratinocytes; type: cell-based, human; settings: 0.002%
Protocol: as §2, §3, §4, §5, §6

[3] = Water solubility (statement); type: physicochemical

Row | SMILES | Reduction of lipids at day 6 versus untreated (human sebaceous glands [1]; Example 6, 0.05 ppm) [%] | Reduction of lipids at day 6 versus untreated (human sebaceous glands [1]; Example 6, 0.5 ppm) [%] | Effect on total lipid / sebum content of sebaceous glands, in words (human sebaceous glands [1]; ex vivo human sebaceous glands) | Viability (human sebaceous glands [2]; Example 6, 0.05 ppm) [%] | Viability (human sebaceous glands [2]; Example 6, 0.5 ppm) [%] | Reduction of lipids at day 6 versus untreated (human sebaceous glands [1]; Example 7, 0.05 ppm) [%] | Reduction of lipids at day 6 versus untreated (human sebaceous glands [1]; Example 7, 0.5 ppm) [%] | Viability (human sebaceous glands [2]; Example 7, 0.05 ppm) [%] | Viability (human sebaceous glands [2]; Example 7, 0.5 ppm) [%] | also measured
1 | COc1cc(CNC(=O)CCCC/C=C/C(C)C)ccc1O [Capsaicin, reference compound] |  |  |  |  |  |  |  |  |  | Reduction of lipids at day 6 versus untreated; Total lipid reduction (human sebaceous glands [1]; 5 μM (1.5 ppm)): −25%; Reduction of lipids at day 6 versus untreated (human sebaceous glands [1]; Example 6, 5 μM (1.5 ppm)): −21%; Reduction of lipids at day 6 versus untreated (human sebaceous glands [1]; Example 7, 5 μM (1.5 ppm)): −20%; Reduction of lipids at day 6 versus untreated; Lipid reduction (human sebaceous glands [1]; 5 μM (1.5 ppm)): 13* %; Viability (human sebaceous glands [2]; Example 3, Donor 1, 5 μM (1.5 ppm)): 92%; Viability (human sebaceous glands [2]; Example 3, Donor 2, 5 μM (1.5 ppm)): 99%; Viability (human sebaceous glands [2]; Example 3, Donor 3, 5 μM (1.5 ppm)): 85%; Viability (human sebaceous glands [2]; Example 4, 5 μM (1.5 ppm)): 82%; Viability (human sebaceous glands [2]; Example 6, 5 μM (1.5 ppm)): 89%; Viability (human sebaceous glands [2]; Example 7, 5 μM (1.5 ppm)): 91%; Viability (human sebaceous glands [2]; Example 8, 5 μM (1.5 ppm)): 95%
2 | OC[C@@H](O)[C@@H](O)CO [erythritol, meso-Erythritol] | −26 | −36 | significantly reduces the lipid content | 82 | 77 |  |  |  |  | 
3 | O[C@H]1[C@H](O)[C@@H](O)[C@H](O)[C@@H](O)[C@H]1O [inositol, myo-Inosiitol] |  |  | significantly reduce the lipid content |  |  | −32 | −10 | 91 | 97 | 
4 | OC[C@@H](O)[C@@H](O[C@@H]1O[C@H](CO)[C@H](O)[C@H](O)[C@H]1O)[C@H](O)[C@@H](O)CO [lactitol, Lactitol] |  |  | significantly reduce the lipid content |  |  | −22 | −22 | 99 | 100 | 
5 | OC[C@@H](O)[C@@H](O[C@H]1O[C@H](CO)[C@@H](O)[C@H](O)[C@H]1O)[C@H](O)[C@@H](O)CO [maltitol, Maltitol] |  |  | significantly reduce the lipid content |  |  | −44 | −39 | 79 | 80 | 
6 | OC[C@@H](O)[C@@H](O)[C@H](O)[C@H](O)CO [mannitol, Mannitol] |  |  | significantly reduces the lipid content; also recorded: significantly reduced the sebum content |  |  |  |  |  |  | Reduction of lipids at day 6 versus untreated; Total lipid reduction (human sebaceous glands [1]; 0.03 ppm): −17%; Sebum/lipid reducing efficacy compared with positive control 5 μM capsaicin, in words (human sebaceous glands [1]; ex vivo human sebaceous glands): less effectively than 5 μM capsaicin; claudin 7 gene regulation, in words (CLDN7 [Claudin 7]): upregulate; RQ value (CLDN7 [Claudin 7]; 0.002%): 2.0; RQ value (OCLN [Occludin]): 1.0; RQ value (CLDN1 [Claudin 1]): 0.5; RQ value (CGN [Cingulin]): 1.0; Viability (human sebaceous glands [2]; Example 4, 0.03 ppm): 81%
7 | NC(=O)c1cccnc1 [niacinamide, Niacinamide, reference compound] |  |  | did not show a relevant lipid reducing activity |  |  |  |  |  |  | Reduction of lipids at day 6 versus untreated; Lipid reduction (human sebaceous glands [1]; 0.5 ppm): 2%; water solubility, in words [3]: readily water soluble; Viability (human sebaceous glands [2]; Example 8, 0.5 ppm): 100%
8 | OC[C@@H](O)[C@@H](O)[C@H](O)[C@@H](O)CO [sorbitol, D-Sorbitol] | −16 | −40 | significantly reduces the lipid content | 80 | 78 |  |  |  |  | Reduction of lipids at day 6 versus untreated; Lipid reduction (human sebaceous glands [1]; 0.5 ppm): 11* %; Effect on total lipid / sebum content of sebaceous glands, in words (human sebaceous glands [1]; ex vivo human sebaceous glands, listed as Sorbitol): exhibited efficacy in the expected range when compared to capsaicin; Viability (human sebaceous glands [2]; Example 8, 0.5 ppm): 95%
9 | OC[C@@H](O)[C@H](O)CO [threitol, D-Threitol] |  |  | significantly reduce the lipid content |  |  | −31 | −47 | 84 | 82 | 
10 | OC[C@@H](O)[C@H](O)[C@@H](O)CO [xylitol, Xylitol] | −23 | −46 | significantly reduces the lipid content | 86 | 80 |  |  |  |  | 
